Columns and labels:
Assay type in all cases: cell-based, human
[1] = test system: patient derived tumour cultures; assay: Selection Factor (tumoroids' area decrease) across patient samples; conditions: for immune reaction reducing the number of tumour cells (Selection Factor metric across samples): FIGS. 8 and 9, alone or in combination, naïve patient sample; for Tumoroids' area decrease (%) as Selection Factor, effect when used alone: experiments shown in FIG. 8
lung tumour sample = assay: ex vivo 3D patient derived tumour culture with 3D imaging, lung tumour sample; conditions: FIG. 6
ovarian cancer tumoroids = assay: ex vivo 3D patient derived tumour culture with 3D imaging, ovarian cancer samples; conditions: for area size of small objects: FIG. 5 (same sample as FIG. 4)
[2] = test system: Mesothelioma tumour sample; assay: ex vivo 3D patient derived tumour culture with 3D imaging, mesothelioma sample; conditions: FIG. 3
IFN-γ = IFN-γ production in treated patient derived tumour cultures; conditions: FIG. 7; IFN-γ is secreted by activated T-cells

Compound | immune reaction reducing the number of tumour cells (Selection Factor metric across samples) [1] | Tumoroids' area decrease (%) as Selection Factor, effect when used alone [1] | immune-mediated tumoroid killing effect (lung tumour sample) | area size of small objects (ovarian cancer tumoroids; ovarian tumour sample) | immune-mediated tumoroid killing effect [2] | activating native immune cells to kill tumoroids (total area of objects larger than 422 μm^2 and of objects smaller than 160 μm^2) (ovarian cancer tumoroids; ovarian cancer samples of FIG. 1, one-sided Wilcoxon test) | activating native immune cells to kill tumoroids (ovarian cancer tumoroids; ovarian cancer samples of FIG. 2) | IFN-γ production (IFN-γ) | immune-mediated tumoroid killing effect (area size reduction of tumoroid clusters) (ovarian cancer tumoroids; ovarian tumour sample, FIG. 4)
nivolumab | able to start an immune reaction that effectively reduced the number of tumour cells | do not show any effect when used alone | immune-mediated tumoroid killing effect |  |  |  |  |  | 
Nc1ncnc2c1ncn2[C@@H]1O[C@@H]2COP(=O)([S-])O[C@@H]3[C@H](O)[C@@H](COP([O-])(=S)O[C@H]2[C@H]1O)O[C@H]3n1cnc2c(N)ncnc21.[Na+].[Na+] (stereo partly shown) [ADU-S100] |  |  |  | area size increase of small objects |  |  |  |  | 
ipilimumab | able to start an immune reaction that effectively reduced the number of tumour cells |  | immune-mediated tumoroid killing effect |  | immune-mediated tumoroid killing effect | effective in activating native immune cells to kill ovarian cancer tumoroids | does not show effectiveness in activating native immune cells to kill tumoroids | increased | 
O=C(c1cc(Cc2n[nH]c(=O)c3ccccc23)ccc1F)N1CCN(C(=O)C2CC2)CC1 [olaparib] | able to start an immune reaction that effectively reduced the number of tumour cells |  |  |  |  |  |  |  | 
pembrolizumab | able to start an immune reaction that effectively reduced the number of tumour cells | do not show any effect when used alone | immune-mediated tumoroid killing effect | area size increase of small objects |  |  |  |  | immune-mediated tumoroid killing effect

— patent US20220404341A1, “METHODS AND APPARATUS FOR MEASURING IMMUNE MEDIATED TUMOROID RESPONSES” (VITROSCAN B.V., priority 2019, published 2022)
